Where two headings read alike, the source gives them in different places.
What was measured:
Assay in all cases: KiNativ assay
Assay type in all cases: binding
[1] = test system: ZC1/HGK, ZC2/TNIK, ZC3/MINK; details: H929 live cell
Experimental: (§1) Biochemical IC50s of the compounds of the present disclosure against various kinases were measured in a KiNativ assay. Compounds were screened in duplicate at 10 μM in H929 live cell. IC50 was measured via Mass spectroscopy (MS).

MPSK1 = MPSK1 (Homo sapiens (Human), UniProt O75716); details: H929 live cell, read-out: inhibition (10 μM)
Experimental: as §1

MAPKAPK2, MAPKAPK3 = details: H929 live cell
Experimental: as §1

PHKg2 = PHKg2 (Homo sapiens (Human), UniProt P15735); details: H929 live cell
Experimental: as §1

RSK1 domain2 = RSK1 domain2 (Homo sapiens (Human), UniProt Q15418); details: H929 live cell
Experimental: as §1

GCN2 domain2 = GCN2 domain2 (Homo sapiens (Human), UniProt Q9P2K8); details: H929 live cell
Experimental: as §1

EphB2 = EphB2 (Homo sapiens (Human), UniProt P29323); details: H929 live cell
Experimental: as §1

PIP4K2A = PIP4K2A (Homo sapiens (Human), UniProt P48426); details: H929 live cell
Experimental: as §1

CHK1 = CHK1 (Homo sapiens (Human), UniProt O14757); details: H929 live cell
Experimental: as §1

PKCz = PKCz (Homo sapiens (Human), UniProt Q05513); details: H929 live cell
Experimental: as §1

CK1g3 = CK1g3 (Homo sapiens (Human), UniProt Q9Y6M4); details: H929 live cell
Experimental: as §1

SGK3 = SGK3 (Homo sapiens (Human), UniProt Q96BR1); details: H929 live cell
Experimental: as §1

eEF2K = eEF2K (Homo sapiens (Human), UniProt O00418); details: H929 live cell
Experimental: as §1

RSKL1 = RSKL1 (Homo sapiens (Human), UniProt Q96S38); details: H929 live cell
Experimental: as §1

MARK2, MARK3 = details: H929 live cell
Experimental: as §1

MASTL = MASTL (Homo sapiens (Human), UniProt Q96GX5); details: H929 live cell
Experimental: as §1

BRAF = BRAF (Homo sapiens (Human), UniProt P15056); details: H929 live cell
Experimental: as §1

TBK1 = TBK1 (Homo sapiens (Human), UniProt Q9UHD2); details: H929 live cell
Experimental: as §1

CDC2 = CDC2 (Homo sapiens (Human), UniProt P06493); details: H929 live cell
Experimental: as §1

PKR = PKR (Homo sapiens (Human), UniProt P19525); details: H929 live cell
Experimental: as §1

FRAP = FRAP (Homo sapiens (Human), UniProt P42345); details: H929 live cell
Experimental: as §1

LATS1 = LATS1 (Homo sapiens (Human), UniProt O95835); details: H929 live cell
Experimental: as §1

MAP2K1 = MAP2K1 (Homo sapiens (Human), UniProt Q02750); details: H929 live cell
Experimental: as §1

PKD3 = PKD3 (Homo sapiens (Human), UniProt O94806); details: H929 live cell
Experimental: as §1

AurA, AurB, AurC = details: H929 live cell
Experimental: as §1

LOK = LOK (Homo sapiens (Human), UniProt O94804); details: H929 live cell
Experimental: as §1

SNRK = SNRK (Homo sapiens (Human), UniProt Q9NRH2); details: H929 live cell
Experimental: as §1

FER = FER (Homo sapiens (Human), UniProt P16591); details: H929 live cell
Experimental: as §1

BARK1 = BARK1 (Homo sapiens (Human), UniProt P25098); details: H929 live cell
Experimental: as §1

IKKa = IKKa (Homo sapiens (Human), UniProt O15111); details: H929 live cell
Experimental: as §1

LYN = LYN (Homo sapiens (Human), UniProt P07948); details: H929 live cell
Experimental: as §1

MAP3K2, MAP3K3 = details: H929 live cell
Experimental: as §1

NEK3 = NEK3 (Homo sapiens (Human), UniProt P51956); details: H929 live cell
Experimental: as §1

RSKL1, sequence (Q96S38 whole entry): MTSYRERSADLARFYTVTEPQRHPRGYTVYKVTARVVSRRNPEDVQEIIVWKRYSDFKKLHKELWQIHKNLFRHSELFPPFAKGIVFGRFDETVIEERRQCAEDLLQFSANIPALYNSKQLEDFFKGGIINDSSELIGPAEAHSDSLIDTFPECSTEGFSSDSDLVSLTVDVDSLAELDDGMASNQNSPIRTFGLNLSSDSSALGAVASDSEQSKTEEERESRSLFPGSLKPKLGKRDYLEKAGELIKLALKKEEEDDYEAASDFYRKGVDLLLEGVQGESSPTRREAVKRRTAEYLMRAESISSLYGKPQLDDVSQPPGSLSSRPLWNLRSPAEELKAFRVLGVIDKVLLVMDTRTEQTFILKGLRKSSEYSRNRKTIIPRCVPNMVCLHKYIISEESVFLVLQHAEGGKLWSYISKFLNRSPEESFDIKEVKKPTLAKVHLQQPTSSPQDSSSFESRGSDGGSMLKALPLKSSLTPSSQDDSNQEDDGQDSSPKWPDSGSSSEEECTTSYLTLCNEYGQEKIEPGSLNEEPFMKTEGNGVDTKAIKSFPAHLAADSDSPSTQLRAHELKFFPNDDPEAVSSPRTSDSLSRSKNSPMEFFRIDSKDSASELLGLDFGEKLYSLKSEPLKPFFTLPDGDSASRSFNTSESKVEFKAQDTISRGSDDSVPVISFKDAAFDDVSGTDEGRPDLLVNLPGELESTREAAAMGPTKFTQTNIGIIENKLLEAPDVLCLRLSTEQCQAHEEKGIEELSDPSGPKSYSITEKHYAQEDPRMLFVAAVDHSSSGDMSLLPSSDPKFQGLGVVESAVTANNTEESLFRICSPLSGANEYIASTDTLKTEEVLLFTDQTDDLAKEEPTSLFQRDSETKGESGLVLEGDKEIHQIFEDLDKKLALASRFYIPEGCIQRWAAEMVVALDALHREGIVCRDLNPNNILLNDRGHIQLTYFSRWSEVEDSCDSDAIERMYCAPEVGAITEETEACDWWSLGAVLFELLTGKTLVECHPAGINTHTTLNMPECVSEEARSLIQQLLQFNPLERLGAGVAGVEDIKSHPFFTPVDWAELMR
CHK1, sequence (O14757 whole entry): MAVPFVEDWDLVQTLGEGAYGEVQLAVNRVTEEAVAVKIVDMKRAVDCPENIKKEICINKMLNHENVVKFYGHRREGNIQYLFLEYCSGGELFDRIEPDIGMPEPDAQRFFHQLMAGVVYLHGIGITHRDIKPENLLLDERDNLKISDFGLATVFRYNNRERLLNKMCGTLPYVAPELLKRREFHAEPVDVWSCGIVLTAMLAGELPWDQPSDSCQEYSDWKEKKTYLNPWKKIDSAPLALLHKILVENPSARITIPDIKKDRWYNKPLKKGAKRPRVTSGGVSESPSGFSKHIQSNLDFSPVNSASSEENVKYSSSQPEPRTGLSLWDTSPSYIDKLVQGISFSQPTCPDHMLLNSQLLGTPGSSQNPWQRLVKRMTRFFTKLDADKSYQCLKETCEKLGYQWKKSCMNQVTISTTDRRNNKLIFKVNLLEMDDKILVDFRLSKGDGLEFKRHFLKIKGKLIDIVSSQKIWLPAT
PHKg2, sequence (P15735 whole entry): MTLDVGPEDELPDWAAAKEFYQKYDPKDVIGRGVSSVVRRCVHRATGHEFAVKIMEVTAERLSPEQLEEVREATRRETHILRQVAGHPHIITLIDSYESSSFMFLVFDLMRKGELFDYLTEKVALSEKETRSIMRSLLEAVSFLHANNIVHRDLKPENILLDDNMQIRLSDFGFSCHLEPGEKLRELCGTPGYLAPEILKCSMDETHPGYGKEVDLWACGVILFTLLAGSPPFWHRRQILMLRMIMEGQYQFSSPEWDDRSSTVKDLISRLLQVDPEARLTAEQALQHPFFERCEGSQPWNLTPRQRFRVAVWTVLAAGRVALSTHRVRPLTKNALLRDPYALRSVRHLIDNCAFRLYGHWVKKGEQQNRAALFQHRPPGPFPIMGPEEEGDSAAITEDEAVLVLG
SNRK, sequence (Q9NRH2 whole entry): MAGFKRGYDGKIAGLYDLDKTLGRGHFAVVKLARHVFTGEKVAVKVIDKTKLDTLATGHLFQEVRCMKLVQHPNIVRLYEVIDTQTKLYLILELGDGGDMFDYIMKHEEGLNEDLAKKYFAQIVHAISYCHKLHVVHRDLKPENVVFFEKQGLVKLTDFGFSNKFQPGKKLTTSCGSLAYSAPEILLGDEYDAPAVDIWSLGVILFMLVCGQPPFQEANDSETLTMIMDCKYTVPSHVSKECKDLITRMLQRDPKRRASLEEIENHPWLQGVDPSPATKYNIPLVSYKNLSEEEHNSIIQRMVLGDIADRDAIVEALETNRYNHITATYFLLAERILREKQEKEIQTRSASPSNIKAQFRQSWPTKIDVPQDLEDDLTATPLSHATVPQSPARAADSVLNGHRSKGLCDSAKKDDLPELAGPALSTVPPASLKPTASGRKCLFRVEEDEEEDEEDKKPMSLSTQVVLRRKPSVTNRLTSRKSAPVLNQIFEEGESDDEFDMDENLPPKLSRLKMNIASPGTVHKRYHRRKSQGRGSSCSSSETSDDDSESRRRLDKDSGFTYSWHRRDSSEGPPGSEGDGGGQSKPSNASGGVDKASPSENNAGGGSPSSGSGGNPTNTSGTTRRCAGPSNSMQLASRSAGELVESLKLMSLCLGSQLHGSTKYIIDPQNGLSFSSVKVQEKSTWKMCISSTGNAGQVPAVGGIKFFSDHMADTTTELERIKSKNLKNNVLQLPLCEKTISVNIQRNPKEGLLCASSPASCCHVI
PIP4K2A, sequence (P48426 whole entry): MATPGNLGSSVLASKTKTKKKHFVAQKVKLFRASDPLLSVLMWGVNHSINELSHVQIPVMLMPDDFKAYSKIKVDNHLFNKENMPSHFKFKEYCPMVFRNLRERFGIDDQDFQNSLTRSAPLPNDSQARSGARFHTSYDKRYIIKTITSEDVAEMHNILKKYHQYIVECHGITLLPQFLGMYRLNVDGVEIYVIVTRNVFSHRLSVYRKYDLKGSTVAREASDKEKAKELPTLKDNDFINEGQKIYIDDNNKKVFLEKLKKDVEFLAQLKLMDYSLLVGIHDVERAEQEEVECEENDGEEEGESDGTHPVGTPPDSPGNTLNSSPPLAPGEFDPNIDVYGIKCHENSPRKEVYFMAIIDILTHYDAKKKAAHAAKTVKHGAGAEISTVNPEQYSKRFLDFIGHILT
TBK1, sequence (Q9UHD2 whole entry): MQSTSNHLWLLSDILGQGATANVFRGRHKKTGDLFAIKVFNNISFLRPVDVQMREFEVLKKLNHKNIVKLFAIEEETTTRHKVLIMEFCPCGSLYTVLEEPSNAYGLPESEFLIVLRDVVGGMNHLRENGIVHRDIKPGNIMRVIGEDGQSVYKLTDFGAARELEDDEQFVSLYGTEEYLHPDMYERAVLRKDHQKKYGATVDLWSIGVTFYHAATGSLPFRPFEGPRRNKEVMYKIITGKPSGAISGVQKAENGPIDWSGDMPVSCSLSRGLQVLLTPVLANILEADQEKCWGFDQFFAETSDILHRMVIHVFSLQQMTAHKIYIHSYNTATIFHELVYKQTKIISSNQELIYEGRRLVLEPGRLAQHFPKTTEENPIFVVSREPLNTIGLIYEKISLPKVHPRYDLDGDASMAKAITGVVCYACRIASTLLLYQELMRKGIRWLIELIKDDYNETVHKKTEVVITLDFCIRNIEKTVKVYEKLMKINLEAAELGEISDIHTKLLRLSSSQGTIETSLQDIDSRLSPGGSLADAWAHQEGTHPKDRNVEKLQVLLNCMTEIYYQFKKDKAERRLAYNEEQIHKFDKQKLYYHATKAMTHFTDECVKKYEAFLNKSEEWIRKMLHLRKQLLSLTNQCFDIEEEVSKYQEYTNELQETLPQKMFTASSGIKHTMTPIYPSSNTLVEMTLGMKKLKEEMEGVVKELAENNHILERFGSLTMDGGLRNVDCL
CK1g3, sequence (Q9Y6M4 whole entry): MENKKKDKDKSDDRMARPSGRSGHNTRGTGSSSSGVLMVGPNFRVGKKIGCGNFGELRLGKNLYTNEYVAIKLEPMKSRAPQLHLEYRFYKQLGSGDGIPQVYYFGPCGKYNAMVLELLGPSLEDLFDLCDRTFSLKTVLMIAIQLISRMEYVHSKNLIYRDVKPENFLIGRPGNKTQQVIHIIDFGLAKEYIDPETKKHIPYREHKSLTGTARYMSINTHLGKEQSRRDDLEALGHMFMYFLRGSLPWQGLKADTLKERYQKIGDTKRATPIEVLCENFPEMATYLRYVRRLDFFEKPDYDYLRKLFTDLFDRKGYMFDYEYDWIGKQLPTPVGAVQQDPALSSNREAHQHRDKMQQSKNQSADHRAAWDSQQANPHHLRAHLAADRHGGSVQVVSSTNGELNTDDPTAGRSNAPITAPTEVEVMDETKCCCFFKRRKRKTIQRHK
CDC2, sequence (P06493 whole entry): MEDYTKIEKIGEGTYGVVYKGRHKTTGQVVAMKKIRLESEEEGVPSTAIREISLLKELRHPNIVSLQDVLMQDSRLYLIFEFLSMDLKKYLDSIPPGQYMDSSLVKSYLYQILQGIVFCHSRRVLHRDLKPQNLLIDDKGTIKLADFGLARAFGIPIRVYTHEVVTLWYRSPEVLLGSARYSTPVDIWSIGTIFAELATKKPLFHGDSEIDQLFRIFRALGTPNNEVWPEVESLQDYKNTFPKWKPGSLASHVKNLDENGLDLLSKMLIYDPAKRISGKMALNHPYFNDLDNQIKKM
MAP2K1, sequence (Q02750 whole entry): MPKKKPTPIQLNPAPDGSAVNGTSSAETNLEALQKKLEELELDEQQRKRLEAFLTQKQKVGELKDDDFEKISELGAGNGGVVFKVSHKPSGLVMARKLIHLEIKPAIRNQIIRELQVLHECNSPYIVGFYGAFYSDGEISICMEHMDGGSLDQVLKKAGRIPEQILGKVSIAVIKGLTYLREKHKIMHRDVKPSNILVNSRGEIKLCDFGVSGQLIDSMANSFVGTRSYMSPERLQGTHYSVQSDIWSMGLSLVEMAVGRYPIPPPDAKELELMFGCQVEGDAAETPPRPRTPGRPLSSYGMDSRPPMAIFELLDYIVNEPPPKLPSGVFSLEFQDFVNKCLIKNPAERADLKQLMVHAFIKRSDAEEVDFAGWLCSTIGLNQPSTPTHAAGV

`Nc1ncc(-c2cccc([N+](=O)[O-])c2F)cc1-c1ccc2c(c1)CCNC2=O` [Compound I-9, 6-(2-amino-5-(2-fluoro-3-nitrophenyl)pyridin-3-yl)-3,4-dihydroisoquinolin-1(2H)-one] was tested, and the “% inhibition (range)” value ([1]; 10 μM) was over 90%, the “inhibition (10 μM)” value [1] was 96.7% and the inhibition at 10 µM (MPSK1) was 55.2%. The “% inhibition (range)” value (MAPKAPK2, MAPKAPK3; 10 μM) was 0.0%, the “inhibition (10 μM)” value (MAPKAPK2, MAPKAPK3) was 4.0% and the inhibition at 10 µM (PHKg2; read-out: % inhibition (range)) was 0%. For the same compound, the inhibition at 10 µM (PHKg2; read-out: inhibition (10 μM)) was -30.7%, the inhibition at 10 µM (RSK1 domain2; read-out: % inhibition (range)) was 0% and the inhibition at 10 µM (RSK1 domain2; read-out: inhibition (10 μM)) was 1%. The inhibition at 10 µM (GCN2 domain2; read-out: % inhibition (range)) was 0%, the inhibition at 10 µM (GCN2 domain2; read-out: inhibition (10 μM)) was 15.5% and the inhibition at 10 µM (EphB2; read-out: % inhibition (range)) was 0%. For the same compound, the inhibition at 10 µM (EphB2; read-out: inhibition (10 μM)) was -25%, the inhibition at 10 µM (PIP4K2A; read-out: % inhibition (range)) was 0% and the inhibition at 10 µM (PIP4K2A; read-out: inhibition (10 μM)) was 10.2%. For the same compound, the inhibition at 10 µM (CHK1; read-out: % inhibition (range)) was 0%, the inhibition at 10 µM (CHK1; read-out: inhibition (10 μM)) was 14.9% and the inhibition at 10 µM (PKCz; read-out: % inhibition (range)) was 0%. It also gave an inhibition at 10 µM (PKCz; read-out: inhibition (10 μM)) of 27%, an inhibition at 10 µM (CK1g3; read-out: % inhibition (range)) of over 90% and an inhibition at 10 µM (CK1g3; read-out: inhibition (10 μM)) of 93%. For the same compound, the inhibition at 10 µM (SGK3; read-out: % inhibition (range)) was 50 to 75%, the inhibition at 10 µM (SGK3; read-out: inhibition (10 μM)) was 51.6% and the inhibition at 10 µM (eEF2K; read-out: % inhibition (range)) was 0%. It also gave an inhibition at 10 µM (eEF2K; read-out: inhibition (10 μM)) of -94.7%, an inhibition at 10 µM (RSKL1; read-out: % inhibition (range)) of 0% and an inhibition at 10 µM (RSKL1; read-out: inhibition (10 μM)) of 0.2%. For the same compound, the “% inhibition (range)” value (MARK2, MARK3; 10 μM) was 50-75%, the “inhibition (10 μM)” value (MARK2, MARK3) was 70.2% and the inhibition at 10 µM (MASTL; read-out: % inhibition (range)) was 0%. The inhibition at 10 µM (MASTL; read-out: inhibition (10 μM)) was -18.4%, the inhibition at 10 µM (BRAF; read-out: % inhibition (range)) was 0% and the inhibition at 10 µM (BRAF; read-out: inhibition (10 μM)) was 3.3%. For the same compound, the inhibition at 10 µM (TBK1; read-out: % inhibition (range)) was 0%, the inhibition at 10 µM (TBK1; read-out: inhibition (10 μM)) was 23.7% and the inhibition at 10 µM (CDC2; read-out: % inhibition (range)) was 0%. The inhibition at 10 µM (CDC2; read-out: inhibition (10 μM)) was -24.7%, the inhibition at 10 µM (PKR; read-out: % inhibition (range)) was 0% and the inhibition at 10 µM (PKR; read-out: inhibition (10 μM)) was -36.7%. For the same compound, the inhibition at 10 µM (FRAP; read-out: % inhibition (range)) was 50 to 75%, the inhibition at 10 µM (FRAP; read-out: inhibition (10 μM)) was 72.7% and the inhibition at 10 µM (LATS1; read-out: % inhibition (range)) was 0%. The inhibition at 10 µM (LATS1; read-out: inhibition (10 μM)) was 33.1%, the inhibition at 10 µM (MAP2K1; read-out: % inhibition (range)) was 0% and the inhibition at 10 µM (MAP2K1; read-out: inhibition (10 μM)) was -55.8%. The inhibition at 10 µM (PKD3; read-out: % inhibition (range)) was 50 to 75%, the inhibition at 10 µM (PKD3; read-out: inhibition (10 μM)) was 74.2% and the “% inhibition (range)” value (AurA, AurB, AurC; 10 μM) was 50-75%. The “inhibition (10 μM)” value (AurA, AurB, AurC) was 66.2%, the inhibition at 10 µM (LOK; read-out: % inhibition (range)) was over 90% and the inhibition at 10 µM (LOK; read-out: inhibition (10 μM)) was 98.5%. For the same compound, the inhibition at 10 µM (SNRK; read-out: % inhibition (range)) was 35 to 50%, the inhibition at 10 µM (SNRK; read-out: inhibition (10 μM)) was 43.7% and the inhibition at 10 µM (FER; read-out: % inhibition (range)) was 0%. The inhibition at 10 µM (FER; read-out: inhibition (10 μM)) was 27.4%, the inhibition at 10 µM (BARK1; read-out: % inhibition (range)) was 0% and the inhibition at 10 µM (BARK1; read-out: inhibition (10 μM)) was 2.8%. It also gave an inhibition at 10 µM (IKKa; read-out: % inhibition (range)) of 0%, an inhibition at 10 µM (IKKa; read-out: inhibition (10 μM)) of -18.4% and an inhibition at 10 µM (LYN; read-out: % inhibition (range)) of 0%. The inhibition at 10 µM (LYN; read-out: inhibition (10 μM)) was -12.4%, the “% inhibition (range)” value (MAP3K2, MAP3K3; 10 μM) was 35-50% and the “inhibition (10 μM)” value (MAP3K2, MAP3K3) was 43.2%. It also gave an inhibition at 10 µM (NEK3; read-out: % inhibition (range)) of 0% and an inhibition at 10 µM (NEK3; read-out: inhibition (10 μM)) of -42.8%.

From patent US10710978B2, “STK4 inhibitors for treatment of hematologic malignancies” (Dana-Farber Cancer Institute, Inc., priority 2015, dated 2020)
